Measurements: US20240279278A1, “NMU RECEPTOR 2 AGONISTS” (Boehringer Ingelheim International GmbH, priority 2023, published 2024)
In brackets after ≈: the same amount, converted by molar mass. Residues, ends and D or L forms follow the SMILES beside them.

B1: C18DA-gGlu3-Sar12-AEPipAc-Tyr-Phe-NMeLeu-Nle-Dbu-Pro-Arg-Gly-NH2 (peptide)
peptide: EEEXXXXXXXXXXXXXYFLXXPRG
HELM: PEPTIDE1{[O=C(O)CCCCCCCCCCCCCCCCC(=O)[*:2]].[gGlu].[gGlu].[gGlu].[Sar].[Sar].[Sar].[Sar].[Sar].[Sar].[Sar].[Sar].[Sar].[Sar].[Sar].[Sar].[O=C(CN1CCN(CCN[*:1])CC1)[*:2]].Y.F.[meL].[Nle].[Dab].P.R.G.[am]}$$$$V2.0
SMILES: CCCC[C@H](NC(=O)[C@H](CC(C)C)N(C)C(=O)[C@H](Cc1ccccc1)NC(=O)[C@H](Cc1ccc(O)cc1)NC(=O)CN1CCN(CCNC(=O)CN(C)C(=O)CN(C)C(=O)CN(C)C(=O)CN(C)C(=O)CN(C)C(=O)CN(C)C(=O)CN(C)C(=O)CN(C)C(=O)CN(C)C(=O)CN(C)C(=O)CN(C)C(=O)CN(C)C(=O)CC[C@H](NC(=O)CC[C@H](NC(=O)CC[C@H](NC(=O)CCCCCCCCCCCCCCCCC(=O)O)C(=O)O)C(=O)O)C(=O)O)CC1)C(=O)N[C@@H](CCN)C(=O)N1CCC[C@H]1C(=O)N[C@@H](CCCNC(=N)N)C(=O)NCC(N)=O
B2: C18DA-gGlu3-Sar9-AEPipAc-Tyr-Phe-NMeLeu-Nle-Dbu-NMeAla-Arg-Gly-NH2 (peptide)
peptide: EEEXXXXXXXXXXYFLXXARG
HELM: PEPTIDE1{[O=C(O)CCCCCCCCCCCCCCCCC(=O)[*:2]].[gGlu].[gGlu].[gGlu].[Sar].[Sar].[Sar].[Sar].[Sar].[Sar].[Sar].[Sar].[Sar].[O=C(CN1CCN(CCN[*:1])CC1)[*:2]].Y.F.[meL].[Nle].[Dab].[meA].R.G.[am]}$$$$V2.0
SMILES: CCCC[C@H](NC(=O)[C@H](CC(C)C)N(C)C(=O)[C@H](Cc1ccccc1)NC(=O)[C@H](Cc1ccc(O)cc1)NC(=O)CN1CCN(CCNC(=O)CN(C)C(=O)CN(C)C(=O)CN(C)C(=O)CN(C)C(=O)CN(C)C(=O)CN(C)C(=O)CN(C)C(=O)CN(C)C(=O)CN(C)C(=O)CC[C@H](NC(=O)CC[C@H](NC(=O)CC[C@H](NC(=O)CCCCCCCCCCCCCCCCC(=O)O)C(=O)O)C(=O)O)C(=O)O)CC1)C(=O)N[C@@H](CCN)C(=O)N(C)[C@@H](C)C(=O)N[C@@H](CCCNC(=N)N)C(=O)NCC(N)=O
B3: C18DA-gGlu3-Sar9-AEPipAc-Tyr-Phe-NMeLeu-Nle-Orn-Pro-Arg-Gly-NH2 (peptide)
peptide: EEEXXXXXXXXXXYFLXXPRG
HELM: PEPTIDE1{[O=C(O)CCCCCCCCCCCCCCCCC(=O)[*:2]].[gGlu].[gGlu].[gGlu].[Sar].[Sar].[Sar].[Sar].[Sar].[Sar].[Sar].[Sar].[Sar].[O=C(CN1CCN(CCN[*:1])CC1)[*:2]].Y.F.[meL].[Nle].[Orn].P.R.G.[am]}$$$$V2.0
SMILES: CCCC[C@H](NC(=O)[C@H](CC(C)C)N(C)C(=O)[C@H](Cc1ccccc1)NC(=O)[C@H](Cc1ccc(O)cc1)NC(=O)CN1CCN(CCNC(=O)CN(C)C(=O)CN(C)C(=O)CN(C)C(=O)CN(C)C(=O)CN(C)C(=O)CN(C)C(=O)CN(C)C(=O)CN(C)C(=O)CN(C)C(=O)CC[C@H](NC(=O)CC[C@H](NC(=O)CC[C@H](NC(=O)CCCCCCCCCCCCCCCCC(=O)O)C(=O)O)C(=O)O)C(=O)O)CC1)C(=O)N[C@@H](CCCN)C(=O)N1CCC[C@H]1C(=O)N[C@@H](CCCNC(=N)N)C(=O)NCC(N)=O

What was measured:
[1] = physchem; type: physicochemical
Description: Example 6: Solubility Determination
Peptides (as TFA-salts) were weighed out in a filter unit (Mini-UniPrep Syringeless Filter 0.45 μm, Whatman PVDF), and 0.1 M phosphate buffer at pH 6 to 8 was added to achieve 10 mg/mL final peptide concentration. The peptides were dissolved by shaking the filter units horizontally at 350 rpm for 2 hours at room temperature. Samples were then filtered to remove any insoluble particles. Controls were prepared by weighing out the corresponding peptide solid material and dissolving it in an appropriate vehicle (e.g. buffer or DMSO) to a final concentration of 1 mg/mL. Both, the control and sample were analyzed by reversed phase chromatography. The area under the peak of the sample was compared to the control and the solubility was calculated based on that ratio. The pH was measured and recorded for each sample.

[2] = molecular target: T1, human NMUR2 receptor (Homo sapiens, UniProt Q9GZQ4); assay: IP1 Gq HTRF assay, activation of human NMUR2 in buffer; type: cell-based; design: expressed in transfected cells; host or cells: CHO-K1; details: CHO-K1 cells expressing human NMUR2, stimulation buffer with 0.1% BSA; read-out: EC50 (hNMUR2) buffer
Method in brief: (§1)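 IP-One HTRF competition (665/620 nm ratio) read after 1 h agonist exposure at 37 °C in pH 7.4 HEPES/HBSS stimulation buffer containing 50 mM LiCl, 0.1% BSA, 1% DMSO. Cells: CHO-K1 stably expressing human NMUR2 or NMUR1. EC50 by 4-parameter nonlinear regression of 8-point curves.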

[3] = molecular target: T2, human NMUR1 receptor (Homo sapiens, UniProt Q9HB89); assay: IP1 Gq HTRF assay, activation of human NMUR1 in buffer; type: cell-based; details: CHO-K1 cells expressing human NMUR1, stimulation buffer with 0.1% BSA; read-out: EC50 (hNMUR1) buffer
T2 construct: expressed in transfected cells; host or cells: CHO-K1
T2 sequence (Q9HB89 1-426): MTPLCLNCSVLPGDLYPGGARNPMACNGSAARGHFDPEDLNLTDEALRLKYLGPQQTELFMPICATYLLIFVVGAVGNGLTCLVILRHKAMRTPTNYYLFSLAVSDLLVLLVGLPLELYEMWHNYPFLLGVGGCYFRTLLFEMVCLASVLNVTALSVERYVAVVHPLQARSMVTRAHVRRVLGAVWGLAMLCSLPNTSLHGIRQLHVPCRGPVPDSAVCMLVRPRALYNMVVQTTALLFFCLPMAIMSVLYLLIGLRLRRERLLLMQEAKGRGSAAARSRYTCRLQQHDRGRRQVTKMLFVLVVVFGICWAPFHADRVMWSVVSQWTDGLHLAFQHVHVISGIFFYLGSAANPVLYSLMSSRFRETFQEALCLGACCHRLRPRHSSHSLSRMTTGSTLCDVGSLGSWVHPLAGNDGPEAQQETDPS
Method in brief: as §1

[4] = molecular target: T1, human NMUR2 receptor; assay: IP1 Gq HTRF assay, activation of human NMUR2 in human plasma; type: cell-based; design: expressed in transfected cells; host or cells: CHO-K1; details: CHO-K1 cells expressing human NMUR2, 100% human plasma; read-out: EC50 (hNMUR2) human plasma
Method in brief: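 EC50 obtained via 4-parameter sigmoidal regression of HTRF IP-One signal (665 nm/620 nm), which falls as intracellular IP1 rises. Stimulation: 1 h, 37° C, peptides in human plasma plus 50 mM LiCl, 1% DMSO final, on NMUR2-expressing CHO-K1 cells, 8 concentrations.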

[5] = molecular target: T3, human neuromedin U receptor 1 (human, UniProt Q9HB89 24-426); assay: cell-based or functional assay
T3 sequence (looked up): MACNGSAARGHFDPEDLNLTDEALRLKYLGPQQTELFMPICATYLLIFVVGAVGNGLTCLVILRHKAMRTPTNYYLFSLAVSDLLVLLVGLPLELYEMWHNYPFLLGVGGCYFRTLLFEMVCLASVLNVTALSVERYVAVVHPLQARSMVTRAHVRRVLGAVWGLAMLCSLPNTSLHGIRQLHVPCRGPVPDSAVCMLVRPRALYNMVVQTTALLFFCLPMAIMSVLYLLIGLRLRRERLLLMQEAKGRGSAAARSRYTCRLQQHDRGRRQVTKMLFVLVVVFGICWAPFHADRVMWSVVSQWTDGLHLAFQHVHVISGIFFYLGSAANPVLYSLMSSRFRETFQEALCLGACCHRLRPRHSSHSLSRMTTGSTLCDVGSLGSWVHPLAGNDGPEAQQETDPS

T1 sequence (Q9GZQ4 whole entry): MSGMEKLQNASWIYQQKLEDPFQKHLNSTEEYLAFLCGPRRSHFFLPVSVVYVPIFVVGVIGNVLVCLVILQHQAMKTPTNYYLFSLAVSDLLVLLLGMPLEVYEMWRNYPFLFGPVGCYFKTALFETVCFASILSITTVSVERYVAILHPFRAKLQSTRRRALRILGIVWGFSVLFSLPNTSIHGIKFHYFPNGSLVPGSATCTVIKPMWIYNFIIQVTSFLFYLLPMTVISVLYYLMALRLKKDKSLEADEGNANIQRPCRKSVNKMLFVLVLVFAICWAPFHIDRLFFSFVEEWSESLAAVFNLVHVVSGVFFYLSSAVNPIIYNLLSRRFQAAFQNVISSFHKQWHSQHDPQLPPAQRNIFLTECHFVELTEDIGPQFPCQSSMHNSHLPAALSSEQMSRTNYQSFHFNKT

Row | Molecule | solubility at 2 h ([1]; pH 7.2) | EC50 [2] | EC50 [3] | EC50 [4] | solubility at 2 h ([1]; pH 7.6) | EC50 (hNMUR1) buffer [5]
1 | CCCC[C@H](NC(=O)[C@H](CC(C)C)N(C)C(=O)[C@H](Cc1ccccc1)NC(=O)[C@H](Cc1ccc(O)cc1)NC(=O)CN1CCN(CCNC(=O)CN(C)C(=O)CN(C)C(=O)CN(C)C(=O)CN(C)C(=O)CN(C)C(=O)CN(C)C(=O)CN(C)C(=O)CN(C)C(=O)CN(C)C(=O)CC[C@H](NC(=O)CC[C@H](NC(=O)CC[C@H](NC(=O)CCCCCCCCCCCCCCCCC(=O)O)C(=O)O)C(=O)O)C(=O)O)CC1)C(=O)N[C@@H](CCCN)C(=O)N(C)[C@@H](C)C(=O)N[C@@H](CCCNC(=N)N)C(=O)NCC(N)=O [Compound 70, C18DA-gGlu3-Sar9-AEPipAc-Tyr-Phe-NMeLeu-Nle-Orn-NMeAla-Arg-Gly-NH2] (HELM PEPTIDE1{[O=C(O)CCCCCCCCCCCCCCCCC(=O)[*:2]].[gGlu].[gGlu].[gGlu].[Sar].[Sar].[Sar].[Sar].[Sar].[Sar].[Sar].[Sar].[Sar].[O=C(CN1CCN(CCN[*:1])CC1)[*:2]].Y.F.[meL].[Nle].[Orn].[meA].R.G.[am]}$$$$V2.0) | 8300 µg/mL (≈ 3.36 mM) | 2.5 nM | > 1000 nM | 27.2 nM |  | 
2 | CCCC[C@H](NC(=O)[C@H](CC(C)C)N(C)C(=O)[C@H](Cc1ccccc1)NC(=O)[C@H](Cc1ccc(O)cc1)NC(=O)CN1CCN(CCNC(=O)CN(C)C(=O)CN(C)C(=O)CN(C)C(=O)CN(C)C(=O)CN(C)C(=O)CN(C)C(=O)CC[C@H](NC(=O)CC[C@H](NC(=O)CC[C@H](NC(=O)CCCCCCCCCCCCCCCCC(=O)O)C(=O)O)C(=O)O)C(=O)O)CC1)C(=O)N[C@@H](CCCNC(=N)N)C(=O)N1CCC[C@H]1C(=O)N[C@@H](CCCNC(=N)N)C(=O)NCC(N)=O [Compound 68, C18DA-gGlu3-Sar6-AEPipAc-Tyr-Phe-NMeLeu-Nle-Arg-Pro-Arg-Gly-NH2] (HELM PEPTIDE1{[O=C(O)CCCCCCCCCCCCCCCCC(=O)[*:2]].[gGlu].[gGlu].[gGlu].[Sar].[Sar].[Sar].[Sar].[Sar].[Sar].[O=C(CN1CCN(CCN[*:1])CC1)[*:2]].Y.F.[meL].[Nle].R.P.R.G.[am]}$$$$V2.0) |  | 1.2 nM |  | 9.6 nM | 900 µg/mL (≈ 0.389 mM) | 
3 | CCCC[C@H](NC(=O)[C@H](CC(C)C)N(C)C(=O)[C@H](Cc1ccccc1)NC(=O)[C@H](Cc1ccc(O)cc1)NC(=O)CN1CCN(CCNC(=O)CN(C)C(=O)CN(C)C(=O)CN(C)C(=O)CN(C)C(=O)CN(C)C(=O)CN(C)C(=O)CN(C)C(=O)CN(C)C(=O)CN(C)C(=O)CC[C@H](NC(=O)CC[C@H](NC(=O)CC[C@H](NC(=O)CCCCCCCCCCCCCCCCC(=O)O)C(=O)O)C(=O)O)C(=O)O)CC1)C(=O)N[C@@H](CCCNC(=N)N)C(=O)N1CCC[C@H]1C(=O)N[C@@H](CCCNC(=N)N)C(=O)NCC(N)=O [Compound 72, C18DA-gGlu3-Sar9-AEPipAc-Tyr-Phe-NMeLeu-Nle-Arg-Pro-Arg-Gly-NH2] (HELM PEPTIDE1{[O=C(O)CCCCCCCCCCCCCCCCC(=O)[*:2]].[gGlu].[gGlu].[gGlu].[Sar].[Sar].[Sar].[Sar].[Sar].[Sar].[Sar].[Sar].[Sar].[O=C(CN1CCN(CCN[*:1])CC1)[*:2]].Y.F.[meL].[Nle].R.P.R.G.[am]}$$$$V2.0) | 9600 µg/mL (≈ 3.8 mM) | 0.9 nM |  | 10.4 nM |  | 
4 | B1 |  |  |  |  |  | 1700 nM
5 | B2 |  |  |  |  |  | > 1000 nM
6 | B3 |  |  |  |  |  | 770 nM
